According to ChEMBL document CHEMBL5143752, “Biological Effects of Modifications of the Englerin A Glycolate” (ACS Med Chem Lett, 2022):
Active and inactive are the calls of the source. The calls are words filed in the database; no cut-off is given here.

Biological target: T1, Short transient receptor potential channel 5 (Homo sapiens, UniProt Q9UL62)
T1 sequence (Q9UL62 whole entry): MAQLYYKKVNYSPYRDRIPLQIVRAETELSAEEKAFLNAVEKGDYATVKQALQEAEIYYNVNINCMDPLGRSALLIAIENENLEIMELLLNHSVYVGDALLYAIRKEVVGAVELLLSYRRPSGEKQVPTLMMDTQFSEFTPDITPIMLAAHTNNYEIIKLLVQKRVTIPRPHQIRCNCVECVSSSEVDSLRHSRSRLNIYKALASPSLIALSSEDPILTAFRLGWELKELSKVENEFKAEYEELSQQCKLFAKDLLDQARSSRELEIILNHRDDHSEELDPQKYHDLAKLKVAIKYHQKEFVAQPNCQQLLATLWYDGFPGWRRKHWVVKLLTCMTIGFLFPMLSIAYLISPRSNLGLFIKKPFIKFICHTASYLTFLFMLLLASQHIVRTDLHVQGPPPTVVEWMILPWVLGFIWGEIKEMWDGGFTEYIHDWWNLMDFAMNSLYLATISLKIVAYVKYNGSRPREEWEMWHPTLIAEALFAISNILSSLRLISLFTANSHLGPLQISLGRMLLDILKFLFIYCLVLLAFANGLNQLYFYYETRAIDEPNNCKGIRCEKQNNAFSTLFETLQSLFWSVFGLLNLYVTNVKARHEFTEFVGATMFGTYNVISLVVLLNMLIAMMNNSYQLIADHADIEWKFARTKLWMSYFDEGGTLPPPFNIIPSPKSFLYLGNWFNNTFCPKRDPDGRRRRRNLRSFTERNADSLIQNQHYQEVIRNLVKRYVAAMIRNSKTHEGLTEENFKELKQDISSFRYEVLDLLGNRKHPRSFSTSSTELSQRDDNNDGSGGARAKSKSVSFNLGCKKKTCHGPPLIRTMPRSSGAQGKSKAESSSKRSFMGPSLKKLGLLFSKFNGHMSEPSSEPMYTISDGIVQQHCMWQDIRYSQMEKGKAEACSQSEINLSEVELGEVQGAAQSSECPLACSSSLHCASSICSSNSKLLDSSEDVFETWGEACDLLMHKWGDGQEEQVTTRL
Test: Agonist activity at human TRPC5 stably expressed in T-REx-293 cells assessed as increase in calcium flux by Fura-2AM dye based fluorescence plate reader assay
Assay type: cell-based
Conditions: not given

Structure (SMILES)	EC50 [µM]
CC(=O)OCC(=O)O[C@@H]1C[C@]2(C(C)C)O[C@@]1(C)[C@@H]1CC[C@@H](C)[C@H]1[C@@H]2OC(=O)/C=C/c1ccccc1	0.48
CC(C)=CC(=O)OCC(=O)O[C@@H]1C[C@]2(C(C)C)O[C@@]1(C)[C@@H]1CC[C@@H](C)[C@H]1[C@@H]2OC(=O)/C=C/c1ccccc1	1.25

Test system: A498
Test: Growth inhibition of human A498 cells assessed as cell growth inhibition
Assay type: functional
Conditions: not given

Structure (SMILES)	GI50 [µM]
CC(=O)OCC(=O)O[C@@H]1C[C@]2(C(C)C)O[C@@]1(C)[C@@H]1CC[C@@H](C)[C@H]1[C@@H]2OC(=O)/C=C/c1ccccc1	0.04
CC(C)[C@@]12C[C@@H](OC(=O)COC(=O)/C=C/c3ccccc3)[C@@](C)(O1)[C@@H]1CC[C@@H](C)[C@H]1[C@@H]2OC(=O)/C=C/c1ccccc1	0.044
CC(C)=CC(=O)OCC(=O)O[C@@H]1C[C@]2(C(C)C)O[C@@]1(C)[C@@H]1CC[C@@H](C)[C@H]1[C@@H]2OC(=O)/C=C/c1ccccc1	0.178
CC(C)[C@@]12C[C@@H](OC(=O)COS(C)(=O)=O)[C@@](C)(O1)[C@@H]1CC[C@@H](C)[C@H]1[C@@H]2OC(=O)/C=C/c1ccccc1	1.3
CCCCCC(=O)OCC(=O)O[C@@H]1C[C@]2(C(C)C)O[C@@]1(C)[C@@H]1CC[C@@H](C)[C@H]1[C@@H]2OC(=O)/C=C/c1ccccc1	0.052
CC(C)[C@@]12C[C@@H](OC(=O)[C@H]3CO3)[C@@](C)(O1)[C@@H]1CC[C@@H](C)[C@H]1[C@@H]2OC(=O)/C=C/c1ccccc1	0.224
CC(C)[C@@]12C[C@@H](OS(C)(=O)=O)[C@@](C)(O1)[C@@H]1CC[C@@H](C)[C@H]1[C@@H]2OC(=O)/C=C/c1ccccc1	0.145
CC(C)[C@@]12C[C@@H](OC(=O)[C@@H]3CO3)[C@@](C)(O1)[C@@H]1CC[C@@H](C)[C@H]1[C@@H]2OC(=O)/C=C/c1ccccc1	2.04
CC(C)[C@@]12C[C@@H](OC(=O)COC(=O)c3ccccc3)[C@@](C)(O1)[C@@H]1CC[C@@H](C)[C@H]1[C@@H]2OC(=O)/C=C/c1ccccc1	0.155
CC(C)[C@@]12C[C@@H](OC(=O)/C=C/c3ccccc3)[C@@](C)(O1)[C@@H]1CC[C@@H](C)[C@H]1[C@@H]2OC(=O)/C=C/c1ccccc1	> 100

Biological target: T2, Short transient receptor potential channel 5 (Homo sapiens) (UniProt Q9UL62)
T2 sequence (whole entry): T1 sequence (Q9UL62 whole entry)
Test: Agonist activity at human TRPC5 stably expressed in T-REx-293 cells assessed as increase in calcium flux at 10 uM by Fura-2AM dye based fluorescence plate reader assay
Assay type: cell-based
Conditions: filed as agonist

Structure (SMILES)	Activity
CCCCCC(=O)OCC(=O)O[C@@H]1C[C@]2(C(C)C)O[C@@]1(C)[C@@H]1CC[C@@H](C)[C@H]1[C@@H]2OC(=O)/C=C/c1ccccc1	Active

Biological target: T3, Short transient receptor potential channel 4 (Homo sapiens) (UniProt Q9UBN4)
T3 sequence (whole entry): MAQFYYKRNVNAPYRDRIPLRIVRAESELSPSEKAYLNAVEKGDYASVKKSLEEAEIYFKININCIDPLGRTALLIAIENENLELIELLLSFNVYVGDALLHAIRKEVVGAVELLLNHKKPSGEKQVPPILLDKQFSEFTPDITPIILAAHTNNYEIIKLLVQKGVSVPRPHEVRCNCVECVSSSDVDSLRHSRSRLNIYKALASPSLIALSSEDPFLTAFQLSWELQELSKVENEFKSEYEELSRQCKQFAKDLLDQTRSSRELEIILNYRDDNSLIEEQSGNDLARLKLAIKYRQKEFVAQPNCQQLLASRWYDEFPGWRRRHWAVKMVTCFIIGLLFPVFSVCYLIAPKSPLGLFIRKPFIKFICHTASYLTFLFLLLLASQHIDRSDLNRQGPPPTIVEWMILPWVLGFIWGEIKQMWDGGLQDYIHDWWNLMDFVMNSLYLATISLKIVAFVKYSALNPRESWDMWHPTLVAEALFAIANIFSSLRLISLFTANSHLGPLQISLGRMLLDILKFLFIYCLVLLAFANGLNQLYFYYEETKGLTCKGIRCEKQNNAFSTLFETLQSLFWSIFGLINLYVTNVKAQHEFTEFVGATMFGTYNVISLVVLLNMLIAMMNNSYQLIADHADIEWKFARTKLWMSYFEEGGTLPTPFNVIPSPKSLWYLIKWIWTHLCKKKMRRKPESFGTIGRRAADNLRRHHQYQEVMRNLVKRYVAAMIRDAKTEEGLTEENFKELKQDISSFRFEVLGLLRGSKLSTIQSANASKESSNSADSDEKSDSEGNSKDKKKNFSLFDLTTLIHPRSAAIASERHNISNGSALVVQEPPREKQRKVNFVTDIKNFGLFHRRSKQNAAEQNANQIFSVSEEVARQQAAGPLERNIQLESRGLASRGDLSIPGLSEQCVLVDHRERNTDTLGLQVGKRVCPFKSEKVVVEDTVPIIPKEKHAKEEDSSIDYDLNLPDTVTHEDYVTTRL
Test: Agonist activity at human TRPC4 stably expressed in T-REx-293 cells assessed as increase in calcium flux at 10 uM by Fura-2AM dye based fluorescence plate reader assay relative to control
Assay type: cell-based
Conditions: not given

Structure (SMILES)	Activity [%]
CC(C)=CC(=O)OCC(=O)O[C@@H]1C[C@]2(C(C)C)O[C@@]1(C)[C@@H]1CC[C@@H](C)[C@H]1[C@@H]2OC(=O)/C=C/c1ccccc1	15

Test system: UO-31
Test: Growth inhibition of human UO-31 cells assessed as cell growth inhibition
Assay type: functional
Conditions: not given

Structure (SMILES)	GI50 [µM]
CC(=O)OCC(=O)O[C@@H]1C[C@]2(C(C)C)O[C@@]1(C)[C@@H]1CC[C@@H](C)[C@H]1[C@@H]2OC(=O)/C=C/c1ccccc1	0.034
CC(C)[C@@]12C[C@@H](OC(=O)COC(=O)/C=C/c3ccccc3)[C@@](C)(O1)[C@@H]1CC[C@@H](C)[C@H]1[C@@H]2OC(=O)/C=C/c1ccccc1	0.066
CC(C)=CC(=O)OCC(=O)O[C@@H]1C[C@]2(C(C)C)O[C@@]1(C)[C@@H]1CC[C@@H](C)[C@H]1[C@@H]2OC(=O)/C=C/c1ccccc1	0.24
CC(C)[C@@]12C[C@@H](OC(=O)COS(C)(=O)=O)[C@@](C)(O1)[C@@H]1CC[C@@H](C)[C@H]1[C@@H]2OC(=O)/C=C/c1ccccc1	1.4
CCCCCC(=O)OCC(=O)O[C@@H]1C[C@]2(C(C)C)O[C@@]1(C)[C@@H]1CC[C@@H](C)[C@H]1[C@@H]2OC(=O)/C=C/c1ccccc1	0.041
CC(C)[C@@]12C[C@@H](OC(=O)[C@H]3CO3)[C@@](C)(O1)[C@@H]1CC[C@@H](C)[C@H]1[C@@H]2OC(=O)/C=C/c1ccccc1	0.204
CC(C)[C@@]12C[C@@H](OS(C)(=O)=O)[C@@](C)(O1)[C@@H]1CC[C@@H](C)[C@H]1[C@@H]2OC(=O)/C=C/c1ccccc1	0.389
CC(C)[C@@]12C[C@@H](OC(=O)[C@@H]3CO3)[C@@](C)(O1)[C@@H]1CC[C@@H](C)[C@H]1[C@@H]2OC(=O)/C=C/c1ccccc1	1.78
CC(C)[C@@]12C[C@@H](OC(=O)COC(=O)c3ccccc3)[C@@](C)(O1)[C@@H]1CC[C@@H](C)[C@H]1[C@@H]2OC(=O)/C=C/c1ccccc1	0.115
CC(C)[C@@]12C[C@@H](OC(=O)/C=C/c3ccccc3)[C@@](C)(O1)[C@@H]1CC[C@@H](C)[C@H]1[C@@H]2OC(=O)/C=C/c1ccccc1	> 100

Biological target: T3, Short transient receptor potential channel 4 (Homo sapiens)
Test: Agonist activity at human TRPC4 stably expressed in T-REx-293 cells assessed as increase in calcium flux at 10 uM by Fura-2AM dye based fluorescence plate reader assay
Assay type: cell-based
Conditions: filed as agonist

Structure (SMILES)	Activity
CC(=O)OCC(=O)O[C@@H]1C[C@]2(C(C)C)O[C@@]1(C)[C@@H]1CC[C@@H](C)[C@H]1[C@@H]2OC(=O)/C=C/c1ccccc1	Active

Test system: RXF 393
Test: Growth inhibition of human RXF 393 cells assessed as inhibition of cell growth
Assay type: functional
Conditions: not given

Structure (SMILES)	GI50 [µM]
CC(=O)OCC(=O)O[C@@H]1C[C@]2(C(C)C)O[C@@]1(C)[C@@H]1CC[C@@H](C)[C@H]1[C@@H]2OC(=O)/C=C/c1ccccc1	0.209
CC(C)[C@@]12C[C@@H](OC(=O)COC(=O)/C=C/c3ccccc3)[C@@](C)(O1)[C@@H]1CC[C@@H](C)[C@H]1[C@@H]2OC(=O)/C=C/c1ccccc1	0.138
CC(C)=CC(=O)OCC(=O)O[C@@H]1C[C@]2(C(C)C)O[C@@]1(C)[C@@H]1CC[C@@H](C)[C@H]1[C@@H]2OC(=O)/C=C/c1ccccc1	0.38
CC(C)[C@@]12C[C@@H](OC(=O)COS(C)(=O)=O)[C@@](C)(O1)[C@@H]1CC[C@@H](C)[C@H]1[C@@H]2OC(=O)/C=C/c1ccccc1	1.1
CCCCCC(=O)OCC(=O)O[C@@H]1C[C@]2(C(C)C)O[C@@]1(C)[C@@H]1CC[C@@H](C)[C@H]1[C@@H]2OC(=O)/C=C/c1ccccc1	0.126
CC(C)[C@@]12C[C@@H](OC(=O)[C@H]3CO3)[C@@](C)(O1)[C@@H]1CC[C@@H](C)[C@H]1[C@@H]2OC(=O)/C=C/c1ccccc1	0.17
CC(C)[C@@]12C[C@@H](OS(C)(=O)=O)[C@@](C)(O1)[C@@H]1CC[C@@H](C)[C@H]1[C@@H]2OC(=O)/C=C/c1ccccc1	0.427
CC(C)[C@@]12C[C@@H](OC(=O)[C@@H]3CO3)[C@@](C)(O1)[C@@H]1CC[C@@H](C)[C@H]1[C@@H]2OC(=O)/C=C/c1ccccc1	7.9
CC(C)[C@@]12C[C@@H](OC(=O)COC(=O)c3ccccc3)[C@@](C)(O1)[C@@H]1CC[C@@H](C)[C@H]1[C@@H]2OC(=O)/C=C/c1ccccc1	0.282
CC(C)[C@@]12C[C@@H](OC(=O)/C=C/c3ccccc3)[C@@](C)(O1)[C@@H]1CC[C@@H](C)[C@H]1[C@@H]2OC(=O)/C=C/c1ccccc1	> 100

Test system: not listed separately
Test: Plasma concentration in mouse at 100 mg/kg, po by LC-MS/MS analysis
Assay type: ADME, organism-based
Conditions: in vivo

Structure (SMILES)	Cp [ng/mL]
CC(C)[C@@]12C[C@@H](OC(=O)COC(=O)/C=C/c3ccccc3)[C@@](C)(O1)[C@@H]1CC[C@@H](C)[C@H]1[C@@H]2OC(=O)/C=C/c1ccccc1	38.7
CC(C)=CC(=O)OCC(=O)O[C@@H]1C[C@]2(C(C)C)O[C@@]1(C)[C@@H]1CC[C@@H](C)[C@H]1[C@@H]2OC(=O)/C=C/c1ccccc1	1.5

Test system: not listed separately
Test: Acute toxicity in mouse assessed as maximum tolerated dose measured for 24 hrs
Conditions: in vivo

Structure (SMILES)	MTD at 24 h [mg/kg]
CC(=O)OCC(=O)O[C@@H]1C[C@]2(C(C)C)O[C@@]1(C)[C@@H]1CC[C@@H](C)[C@H]1[C@@H]2OC(=O)/C=C/c1ccccc1	0.2
CC(C)[C@@]12C[C@@H](OC(=O)COC(=O)/C=C/c3ccccc3)[C@@](C)(O1)[C@@H]1CC[C@@H](C)[C@H]1[C@@H]2OC(=O)/C=C/c1ccccc1	1
CC(C)=CC(=O)OCC(=O)O[C@@H]1C[C@]2(C(C)C)O[C@@]1(C)[C@@H]1CC[C@@H](C)[C@H]1[C@@H]2OC(=O)/C=C/c1ccccc1	0.4
CCCCCC(=O)OCC(=O)O[C@@H]1C[C@]2(C(C)C)O[C@@]1(C)[C@@H]1CC[C@@H](C)[C@H]1[C@@H]2OC(=O)/C=C/c1ccccc1	0.4
CC(C)[C@@]12C[C@@H](OC(=O)COC(=O)c3ccccc3)[C@@](C)(O1)[C@@H]1CC[C@@H](C)[C@H]1[C@@H]2OC(=O)/C=C/c1ccccc1	0.4
